Reference: patent US20070009593A1, “Methods of treating cancer” (Indianan University Advanced Research, priority 2002, published 2007)
Like-named read-outs stand apart in the source and are kept apart here.

Assays:
EGF receptor = EGF receptor expression in Caco 2 cells, Western blot; type: cell-based; conditions: 20 μM, 24 hours, confluent Caco 2
Method: The medium was not changed. After 24 hours, the cells were harvested by Triton X-100 lysis, and Western blot analysis was performed on the supernatant, which contains solubilized EGF receptor.

[1] = tested on: Caco 2 C9 control (pRC/CMV vector); assay: MTT assay, 96 well plate, 48 h; type: cell-based; conditions: Caco-2, 48 h, read-out: Ritonavir IC50
H522 = assay: MTT assay, NSCLC cell line; type: cell-based; conditions: Homo sapiens
breast cancer lines = assay: Annexin V/propidium iodide flow cytometry; type: cell-based, human; conditions: at the ritonavir IC50 and IC80
Surface her2 = assay: surface her2 in breast cancer lines under ritonavir; type: cell-based, human; conditions: SKBR-3, ritonavir treatment
[2] = target: T1, chymotryptic active site of the proteasome (ZGGL-AMC cleavage) (Homo sapiens, UniProt P28074); assay: fluorometric assay of ZGGL-AMC cleavage by Caco 2 cells; type: cell-based; conditions: for ZGGL-AMC cleavage: Caco 2 cells (DMSO control 0.287)
T1 construct: Fluorometric assay of ZGGL-AMC cleavage by Caco 2 cells; endogenous in cells; host or cells: Caco 2

HUVEC = HUVEC cell spreading assay; type: cell-based, human; conditions: 40 μM
Method: Cells were fixed in 3.7% formaldehyde in PBS, blocked and stained with Oregon-green phalloidin 514 (Molecular Probes), and then digitally photographed using a Zeiss inverted fluorescence microscope equipped with a CCD camera. Cell areas were measured on the digital images using the Spot program (Diagnostic Imaging).

Caco 2 cells = assay: proliferation / combination assay in colon cancer cells; type: cell-based; conditions: Homo sapiens
[3] = patients, Gatti et al., cited from earlier work
H23 = assay: MTT assay, NSCLC cell line; type: cell-based; conditions: Homo sapiens, NCI-H23
MDA-MB-231 (231) = assay: clonogenic assay (LD50), ritonavir sensitivity; type: cell-based, human; conditions: 231 cells
Description: (§1) MCF7 and MDA-MB-435 (435) had relatively low m-calpain levels, whereas MDA-MB-231 (231), MDA-MB-436 (436) and Caco 2 had relatively high m-calpain levels.
(§2) We note that the IC50 is derived from MTT assays, while the LD50 is derived from clonogenic assays.

MDA-MB-436 (436) = assay: clonogenic assay (LD50), ritonavir sensitivity; type: cell-based, human; conditions: 436 cells
Description: as §1, §2

MCF7 = assay: clonogenic assay (LD50), ritonavir sensitivity; type: cell-based, human
Description: as §1, §2

MDA-MB-435 (435) = assay: clonogenic assay (LD50), ritonavir sensitivity; type: cell-based, human; conditions: 435 cells
Description: as §1, §2

in vivo = conditions: mouse, ip
Surface EGFR = assay: surface EGFR in breast cancer lines under ritonavir; type: cell-based, human; parameters: reference not given here
MDA-MD-435 cells = assay: proliferation assay, MTT, 24 hours; type: cell-based; conditions: Homo sapiens, 24 hours exposure, averaging 2 experiments
Method: Proliferation assays were done by plating cells in a 96 well plate at […] for the 231 cells and 5×10^3 cells per well for the 435 cells. The cells were allowed to attach and grow for 24 hours. […] The cells were allowed to grow for 24 hours and the number of viable cells was measured by MTT assay.

[4] = tested on: MDA-MB-231 human breast cancer tumors; assay: MDA-MB-231 xenograft model; type: in vivo, nude mice; conditions: 40 mg/kg
Method: (Tumor size was measured by the method volume in cubic mm=length×[width]squared/2.) The tumors in this preliminary experiment took 7 weeks to grow and represent established tumors. […] FIG. 6B confirms the finding of 6A, showing that all three of the control tumors progressed. […] FIG. 6C depicts weight of the tumor when measured at days 1, 6, 9, and 13. FIG. 6D depicts weight of the animal when measured at days 1, 3, 6, 10, and 13.

[5] = tested on: 436 with expression of IκB α super-repressor of NF-κB; assay: clonogenic assay (LD50), ritonavir sensitivity; type: cell-based, human; conditions: 436 expressing IκB α super-repressor of NF-κB
Description: This finding is consistent with the implication of signaling pathways in the resistance of breast cancer cell lines to chemotherapy (Patel et al., Oncogene 19:4159-4169).
as §2

[6] = tested on: calpain cleavage of α-fodrin; assay: NFF score, IHC with PP1 antibody, ritonavir treated mice; type: in vivo; conditions: 10 days
Description: Differentiation of the stratum spinosum of tongue epithelium was affected, with a reduction of nuclear involution as well as an increase in the keratinized layer (FIGS. 5A-5C). […] Previous observations of the proliferative rate of tongue compared to skin in mice indicate that tongue is a more proliferative epithelium (Hume, W. J. Cell Tissue Kinet. 19:195-203 (1986)).
The antiserum specific for the calpain-dependent α-fodrin cleavage, PP1, was used at 1:100 dilution. Competition with specific peptide blocked nuclear staining. The size bar is […]. […] Arrows indicate basal layer nuclei. The vertical bar indicates maximum thickness of the keratinized layer in each image.

[7] = ritonavir serum levels in mice
[8] = tested on: MDA-436IκBSR (super-repressor of NF-κB over-expressed); assay: MTT assay, breast cancer line; type: cell-based; conditions: Homo sapiens, read-out: Ritonavir IC50

CC(C)c1nc(CN(C)C(=O)N[C@H](C(=O)N[C@@H](Cc2ccccc2)C[C@H](O)[C@H](Cc2ccccc2)NC(=O)OCc2cncs2)C(C)C)cs1 [Ritonavir, ritonavir]
EGF receptor down regulated (EGF receptor): 20%
IC50 [1]: 30 µM
IC50 (H522; NCI-H522): 42.5 µM
IC80 (H522; NCI-H522, single agent): 90 µM
apoptosis (breast cancer lines): increased apoptosis
Surface her2 Ritonavir (Surface her2): 0.4
ZGGL-AMC cleavage ([2]; 6 μM): 0.432 pmol·s^1− 10^6 cells
ZGGL-AMC cleavage ([2]; 12 μM): 0.412 pmol·s^1− 10^6 cells
ZGGL-AMC cleavage ([2]; 24 μM): 0.337 pmol·s^1− 10^6 cells
ZGGL-AMC cleavage ([2]; 60 μM): 0.409 pmol·s^1− 10^6 cells
effect on ZGGL-AMC cleavage ([2]; Caco 2 cells): does not block cleavage
reduction of cell area (HUVEC; 1 hour of spreading): 15%
cell area (HUVEC; 1 hour spreading on fibronectin): 4100±160 μm^2
IC50 (Caco 2 cells; Caco-2, 48 h, read-out: IC50 (50% inhibition of proliferation)): 30 µM
IC50 (Caco 2 cells; Caco 2, single agent, read-out: IC50): 45 µM
peak plasma ritonavir concentrations ([3]; AIDS 13:2083-2089): 18.6 to 46 µM
trough concentrations ([3]; AIDS 13:2083-2089): 10.4 to 17.5 µM
Cmax ([3]; read-out: upper boundary of ritonavir Cmax plasma concentrations): ~45 µM
IC50 (H23): 44 µM
LD50 (MDA-MB-231 (231)): 60 μm
LD50 (MDA-MB-436 (436)): 55 µM
LD50 (MCF7): 25 µM
LD50 (MDA-MB-435 (435)): 16 µM
half-life (in vivo): < 3 h
Surface EGFR (Ritonavir) (Surface EGFR; MCF7, ritonavir treatment): 1
Surface EGFR (Ritonavir) (Surface EGFR; MDA-231, ritonavir treatment): 0.5
Surface EGFR (Ritonavir) (Surface EGFR; MDA-436, ritonavir treatment): 0.5
Surface EGFR (Ritonavir) (Surface EGFR; SKBR-3, ritonavir treatment): 0.36
Surface EGFR (Ritonavir) (Surface EGFR; T47D, ritonavir treatment): 1
IC50 (MDA-MD-435 cells): ~150 µM
growth rate of tumors ([4]; nude mice, FIG. 6C): decrease the growth rate of tumors
weight of the animal ([4]; nude mice, FIG. 6D): without causing wasting of the mice
tumor response ([4]; three established tumors, FIG. 6A): two tumors of three exhibited stable disease
LD50 [5]: 40 µM
NFF score ([6]; tongue basal cell layer, 12 μM peak): 34%
NFF score ([6]; tongue basal cell layer, 67 μM peak): 1%
NFF score ([6]; ventral skin basal cell layer, 12 μM peak): 27%
NFF score ([6]; ventral skin basal cell layer, 67 μM peak): 17%
trough drug levels ([7]; Tween 80, ip injection): less than 0.1 μM
peak ritonavir concentrations ([7]; oral gavage, Norvir liquid, 40 mg/kg body weight): less than 1 μM
IC50 [8]: 26 µM
